# From patent publication US9908890B2, “Selective inhibitors of constitutive androstane receptor” (ST. JUDE CHILDREN'S RESEARCH HOSPITAL, priority 2014, dated 2018)
# Key:
# [1] = target: T1, hCAR1 (Homo sapiens, UniProt Q14994); assay: Cell-based inverse agonist assay (CYP2B6-luciferase reporter in HepG2 cells transfected with hCAR1); conditions: 24 h treatment; read-out: IC50, inhibition of CAR-mediated CYP2B6-luciferase activity
# T1 construct: expressed in transfected cells; host or cells: HepG2 (transient transfection)
# T1 sequence (Q14994 1-348 isoform Q14994-2): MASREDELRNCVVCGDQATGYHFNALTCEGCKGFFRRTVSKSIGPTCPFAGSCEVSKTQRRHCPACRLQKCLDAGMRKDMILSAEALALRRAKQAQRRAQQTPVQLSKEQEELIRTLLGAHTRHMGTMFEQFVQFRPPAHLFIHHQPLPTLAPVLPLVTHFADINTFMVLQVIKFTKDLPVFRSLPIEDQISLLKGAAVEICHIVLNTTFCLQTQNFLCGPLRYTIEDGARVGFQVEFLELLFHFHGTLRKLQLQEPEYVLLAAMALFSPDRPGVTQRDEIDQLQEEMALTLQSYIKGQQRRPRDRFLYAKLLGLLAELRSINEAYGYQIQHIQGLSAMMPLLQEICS
# Procedure: HepG2 cells grown in flasks were transfected with Flag-hCAR1 and CYP2B6-luciferase reporter at a 1:3 ratio with Fugene HD (Promega) and incubated for 24 h. Cells were trypsinized and plated in 384-well plates (CulturPlate-384, PerkinElmer) at 5000 cells/well for the primary or secondary screening assays. Cells were treated with chemicals transferred by using a pintool 24 h prior to measuring reporter luciferase activity with SteadyLite firefly luciferase reagent and an EnVision plate reader (PerkinElmer). […] PXR activity was measured in HepG2 cells stably transfected with hPXR and CYP3A4-luciferase reporter (previously described as PXR Clonel cells, see Li, G., et al. (2012) Tox. Appl. Pharm. 258, 268-274; and Lin, W., et al. (2008) J. Biol. Chem. 283, 30650-30657). […] The luminescence signal was detected by using an Envision plate reader (PerkinElmer) and used to calculate the percentage of PXR activation. […] A flowchart of our screening strategy is illustrated in FIG. 1A. HepG2 cells were transiently transfected with pcDNA-hCAR1 and CYP2B6-luciferase plasmids and treated with varying concentrations of the test compounds in 384-well plates for 24 h, and CAR-mediated luciferase activity was measured. Twenty-five hits, defined as those displaying dose-responsive inhibitory effect on the constitutively active hCAR1, were selected and tested in various secondary screening assays. CINPA1 (FIG. 1B) was selected based on its potent inhibitory effect on hCAR1 and lack of detectable agonistic activity against PXR.
# [2] = system: FXR, GR, LXRα, LXRβ, PPARγ, RXRα, RXRβ, VDR; assay: GeneBLAzer nuclear receptor assays; assay type: cell-based; conditions: 18 μM
# Procedure: FIG. 3B-FIG. 31 show representative data for treatment of GeneBLAzer® cells treated with DMSO (negative control), a predetermined concentration of the indicated nuclear receptor (“NR”) antagonist (positive control; concentration as detailed in Examples), or 18 μM of CINPA1 in the presence or absence the indicated NR agonist (i.e., indicated below treatments). NR-mediated β-lactamase activity was measured as a FRET ratio after 24 h treatment. Data is presented as % Activity, determined by setting the maximum FRET signal obtained for each receptor (in the respective agonist+DMSO wells) to 100%. eGugg=e Guggulsterone, Feno=Fenofibrate, GW9=GW9662, 22HC=22(S)-hydroxycholesterol, 9-cis RA=9-cis retinoic acid.
# GeneBLAzer® cells individually expressing the ligand-binding domains of either FXR, GR, LXRα, LXRβ, PPARγ, RXRα, RXRβ, or VDR fused to the GAL4-DNA binding domain (GAL4-DBD) were obtained from Life Technologies (Li, G., et al. (2012) Tox. Appl. Pharm. 258, 268-274; and Yu, D. D., et al. (2013) Bioorg. Med. Chem 21, 4266-4278). Upon activation with the respective agonist, β-lactamase is expressed under the transcriptional control of an Upstream Activator Sequence (UAS), and a FRET-based substrate (CCF2-AM) is used to measure the enzyme activity of β-lactamase.
# [3] = system: CAR- and PXR-regulated genes in human primary hepatocytes; assay: Quantitative real-time PCR in human primary hepatocytes; assay type: cell-based; conditions: 48 h
# Source text: RNA was extracted, cDNA synthesized, and gene expression analyzed by performing real-time PCR using Taqman probes for each gene. […] LS174T cells were maintained in 10% charcoal-dextran-treated, FBS media for 4 days before the experiment. […] Briefly, human primary hepatocytes (HPH) were maintained in William's E media with supplements for 4 days before treatment. […] RNA extracted was used for cDNA synthesis and measured by performing quantitative real-time PCR assays with Taqman probes.
# Briefly, human primary hepatocytes (donor 5) were maintained in William's E Media with supplements for 4 days prior to treatment. […] RNA extracted was used for cDNA synthesis and measured by quantitative real-time PCR with Taqman probes. CYP2B6 and CYP3A4 mRNA were normalized to the internal control 18S and DMSO-treated samples were set to 1.
# Cell lines or human hepatocytes were treated with chemicals for 24-48 hours before RNA was extracted and purified by using the Maxwell 16LEV simplyRNA tissue kit (Promega). Then, cDNA was prepared from 2 μg of RNA, and diluted cDNA was used to perform quantitative RT-PCR assays by using TaqMan probes (ABI; 7500 Thermocycler) with 18S as the internal standard.
# [4] = system: CAR protein; assay: Western blot of CAR protein in human primary hepatocytes; assay type: cell-based; conditions: 5 μM CINPA1, 48 h
# Procedure: Briefly, CAR binding to PGC-1α coactivator peptide was determined by using the LanthaScreen® fluorescent coregulator peptide assay. Fluorescein-labeled PGC-1α peptide (125 nM) was complexed with GST-hCAR-LBD (5 nM) and Tb-anti-GST antibody (5 nM) as described in Experimental Procedures. […] Lysates were prepared, and CAR expression was analyzed by Western blot using CAR monoclonal antibody (Clone N4111, R&D Systems). β-actin was used as a loading control. […] Briefly, U2OS cells were transfected to express FLAG-hCAR1. […] Secondary antibody labeled with Alexa Fluor® 555 dye was used to visualize FLAG-tagged hCAR1 (shown in the second column) using a NikonC 1Si microscope. Nuclei were stained with DAPI (shown in the first column).
compound,measurement,setting,value
CCOC(=O)Nc1ccc2c(c1)N(C(=O)CN(CC)CC)c1ccccc1CC2 [CINPA1],IC50,[1],72 nM
same,attenuation of agonist-induced receptor activation,[2]; with NR agonist,did not attenuate the agonist-induced activation of any of the receptors tested
same,activation of nuclear receptors,[2]; without agonist,did not activate any of the nuclear receptors tested
same,CITCO-induced CAR transactivation of the CYP2B6 gene,"[3]; 1 μM CITCO plus CINPA1 (5, 1 or 0.3 μM for Donor 1, 2, 3)",effectively inhibited
same,rifampicin-induced PXR-mediated gene expression,[3]; 5 μM CINPA1 with 10 μM rifampicin,could not reduce
same,CAR protein level,[4],had no effect
